Source: US10710978B2, “STK4 inhibitors for treatment of hematologic malignancies” (Dana-Farber Cancer Institute, Inc., priority 2015, dated 2020)
Like-named read-outs stand apart in the source and are kept apart here.

Tests used:
Experiment in all cases: KiNativ assay
Format in all cases: binding
[1] = target: MLKL (Homo sapiens (Human), UniProt Q8NB16); settings: H929 live cell
Description: (§1) Biochemical IC50s of the compounds of the present disclosure against various kinases were measured in a KiNativ assay. Compounds were screened in duplicate at 10 μM in H929 live cell. IC50 was measured via Mass spectroscopy (MS).

[2] = target: RSK1 domain1 (Homo sapiens (Human), UniProt Q15418); settings: H929 live cell
Description: as §1

[3] = target: PHKg2 (Homo sapiens (Human), UniProt P15735); settings: H929 live cell
Sequence of PHKg2 (P15735 whole entry): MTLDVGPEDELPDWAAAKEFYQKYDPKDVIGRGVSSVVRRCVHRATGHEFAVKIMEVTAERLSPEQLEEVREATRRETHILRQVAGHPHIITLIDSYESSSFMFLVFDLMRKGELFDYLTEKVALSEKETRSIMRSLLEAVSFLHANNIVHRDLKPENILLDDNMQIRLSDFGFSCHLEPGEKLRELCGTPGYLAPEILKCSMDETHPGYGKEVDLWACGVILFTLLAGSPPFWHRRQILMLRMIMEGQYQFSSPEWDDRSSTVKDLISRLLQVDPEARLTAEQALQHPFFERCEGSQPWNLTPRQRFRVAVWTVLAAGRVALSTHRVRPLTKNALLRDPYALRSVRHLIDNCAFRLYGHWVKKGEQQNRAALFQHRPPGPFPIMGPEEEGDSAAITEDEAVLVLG
Description: as §1

[4] = test system: FYN, SRC, YES; settings: H929 live cell
Description: as §1

[5] = target: NEK1 (Homo sapiens (Human), UniProt Q96PY6); settings: H929 live cell
Description: as §1

[6] = target: p70S6Kb (Homo sapiens (Human), UniProt Q9UBS0); settings: H929 live cell
Sequence of p70S6Kb (Q9UBS0 whole entry): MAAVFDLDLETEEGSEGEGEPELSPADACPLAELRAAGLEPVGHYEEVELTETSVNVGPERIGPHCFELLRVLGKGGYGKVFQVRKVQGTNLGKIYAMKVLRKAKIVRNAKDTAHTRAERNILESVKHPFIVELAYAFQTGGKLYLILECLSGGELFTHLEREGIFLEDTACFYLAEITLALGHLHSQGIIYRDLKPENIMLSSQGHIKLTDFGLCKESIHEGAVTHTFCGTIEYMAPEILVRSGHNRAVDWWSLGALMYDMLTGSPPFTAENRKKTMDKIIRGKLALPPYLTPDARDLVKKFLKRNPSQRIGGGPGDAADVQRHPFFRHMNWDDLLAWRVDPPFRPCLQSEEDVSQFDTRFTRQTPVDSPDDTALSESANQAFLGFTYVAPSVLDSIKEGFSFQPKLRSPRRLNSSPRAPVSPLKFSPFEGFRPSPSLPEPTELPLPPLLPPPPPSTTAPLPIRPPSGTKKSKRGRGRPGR
Description: as §1

[7] = test system: p38d, p38g; settings: H929 live cell
Description: as §1

[8] = target: PKD2 (Homo sapiens (Human), UniProt Q9BZL6); settings: H929 live cell
Description: as §1

[9] = target: AKT1 (Homo sapiens (Human), UniProt P31749); settings: H929 live cell
Description: as §1

[10] = target: GSK3A (Homo sapiens (Human), UniProt P49840); settings: H929 live cell
Sequence of GSK3A (P49840 whole entry): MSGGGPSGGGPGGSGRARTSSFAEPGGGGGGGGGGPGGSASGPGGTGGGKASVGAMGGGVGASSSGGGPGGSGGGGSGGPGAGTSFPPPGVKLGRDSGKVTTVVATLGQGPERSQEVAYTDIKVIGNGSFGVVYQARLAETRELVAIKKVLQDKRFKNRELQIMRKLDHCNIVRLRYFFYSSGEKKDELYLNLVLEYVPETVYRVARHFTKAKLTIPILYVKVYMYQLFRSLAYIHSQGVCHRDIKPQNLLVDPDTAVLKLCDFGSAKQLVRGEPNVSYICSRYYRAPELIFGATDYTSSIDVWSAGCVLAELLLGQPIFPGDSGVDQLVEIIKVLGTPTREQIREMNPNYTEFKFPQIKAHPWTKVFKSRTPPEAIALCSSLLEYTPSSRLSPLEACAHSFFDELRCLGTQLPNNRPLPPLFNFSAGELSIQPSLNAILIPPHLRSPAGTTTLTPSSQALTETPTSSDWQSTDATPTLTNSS
Description: as §1

[11] = target: MAP2K5 (Homo sapiens (Human), UniProt Q13163); settings: H929 live cell
Description: as §1

[12] = target: NEK7 (Homo sapiens (Human), UniProt Q8TDX7); settings: H929 live cell
Sequence of NEK7 (Q8TDX7 whole entry): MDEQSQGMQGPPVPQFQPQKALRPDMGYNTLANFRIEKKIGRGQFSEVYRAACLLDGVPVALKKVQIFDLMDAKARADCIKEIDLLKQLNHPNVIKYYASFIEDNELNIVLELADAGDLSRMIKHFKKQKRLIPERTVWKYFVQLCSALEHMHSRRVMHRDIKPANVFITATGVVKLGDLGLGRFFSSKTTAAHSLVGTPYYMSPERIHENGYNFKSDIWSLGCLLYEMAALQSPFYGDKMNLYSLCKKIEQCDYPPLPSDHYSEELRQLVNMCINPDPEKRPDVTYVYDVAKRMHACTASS
Description: as §1

[13] = test system: RSK1 domain1, RSK2 domain1, RSK3 domain1; settings: H929 live cell
Description: as §1

[14] = target: PIK3C3 (Homo sapiens (Human), UniProt Q8NEB9); settings: H929 live cell
Sequence of PIK3C3 (Q8NEB9 whole entry): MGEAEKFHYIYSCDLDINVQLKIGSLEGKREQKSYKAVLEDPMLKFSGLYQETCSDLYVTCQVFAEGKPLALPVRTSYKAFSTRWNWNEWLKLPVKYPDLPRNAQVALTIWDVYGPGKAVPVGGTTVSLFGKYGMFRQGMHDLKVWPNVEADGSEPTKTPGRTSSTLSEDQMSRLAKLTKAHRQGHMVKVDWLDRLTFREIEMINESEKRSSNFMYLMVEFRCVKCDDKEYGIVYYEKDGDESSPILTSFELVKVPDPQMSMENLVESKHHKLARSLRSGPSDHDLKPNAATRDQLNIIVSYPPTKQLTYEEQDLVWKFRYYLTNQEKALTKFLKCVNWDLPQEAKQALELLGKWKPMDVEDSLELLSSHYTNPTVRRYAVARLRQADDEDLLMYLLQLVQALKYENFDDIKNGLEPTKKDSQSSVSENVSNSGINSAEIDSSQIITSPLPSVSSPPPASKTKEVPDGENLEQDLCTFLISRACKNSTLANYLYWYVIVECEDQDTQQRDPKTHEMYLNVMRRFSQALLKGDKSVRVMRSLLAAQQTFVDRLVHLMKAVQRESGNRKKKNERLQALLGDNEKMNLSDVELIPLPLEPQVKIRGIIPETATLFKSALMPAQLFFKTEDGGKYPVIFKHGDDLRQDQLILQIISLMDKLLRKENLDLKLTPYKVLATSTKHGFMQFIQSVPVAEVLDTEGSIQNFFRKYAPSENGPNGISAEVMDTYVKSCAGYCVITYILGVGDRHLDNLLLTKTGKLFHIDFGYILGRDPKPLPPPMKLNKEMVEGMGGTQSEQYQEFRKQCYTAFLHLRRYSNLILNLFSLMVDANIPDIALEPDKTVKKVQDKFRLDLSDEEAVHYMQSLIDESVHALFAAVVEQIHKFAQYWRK
Description: as §1

[15] = test system: MAP2K1, MAP2K2; settings: 10 μM, H929 live cell
Description: as §1

[16] = target: PI4KB (Homo sapiens (Human), UniProt Q9UBF8); settings: H929 live cell
Description: as §1

[17] = target: JAK3 domain2 (Homo sapiens (Human), UniProt P52333); settings: H929 live cell
Description: as §1

[18] = target: PKR (Homo sapiens (Human), UniProt P19525); settings: H929 live cell
Description: as §1

[19] = target: LATS1 (Homo sapiens (Human), UniProt O95835); settings: H929 live cell
Description: as §1

[20] = target: Erk2 (Homo sapiens (Human), UniProt P28482); settings: H929 live cell
Sequence of Erk2 (P28482 whole entry): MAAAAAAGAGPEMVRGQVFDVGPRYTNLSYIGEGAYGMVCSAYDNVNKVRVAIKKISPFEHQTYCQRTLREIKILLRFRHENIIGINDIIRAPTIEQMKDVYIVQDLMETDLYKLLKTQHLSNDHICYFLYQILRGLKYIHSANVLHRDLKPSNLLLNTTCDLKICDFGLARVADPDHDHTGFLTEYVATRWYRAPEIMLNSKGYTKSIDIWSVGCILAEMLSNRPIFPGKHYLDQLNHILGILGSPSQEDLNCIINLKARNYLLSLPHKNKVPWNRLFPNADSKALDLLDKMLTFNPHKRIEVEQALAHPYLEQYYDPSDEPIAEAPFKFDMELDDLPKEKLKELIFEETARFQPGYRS
Description: as §1

[21] = target: IRAK1 (Homo sapiens (Human), UniProt P51617); settings: H929 live cell
Sequence of IRAK1 (P51617 whole entry): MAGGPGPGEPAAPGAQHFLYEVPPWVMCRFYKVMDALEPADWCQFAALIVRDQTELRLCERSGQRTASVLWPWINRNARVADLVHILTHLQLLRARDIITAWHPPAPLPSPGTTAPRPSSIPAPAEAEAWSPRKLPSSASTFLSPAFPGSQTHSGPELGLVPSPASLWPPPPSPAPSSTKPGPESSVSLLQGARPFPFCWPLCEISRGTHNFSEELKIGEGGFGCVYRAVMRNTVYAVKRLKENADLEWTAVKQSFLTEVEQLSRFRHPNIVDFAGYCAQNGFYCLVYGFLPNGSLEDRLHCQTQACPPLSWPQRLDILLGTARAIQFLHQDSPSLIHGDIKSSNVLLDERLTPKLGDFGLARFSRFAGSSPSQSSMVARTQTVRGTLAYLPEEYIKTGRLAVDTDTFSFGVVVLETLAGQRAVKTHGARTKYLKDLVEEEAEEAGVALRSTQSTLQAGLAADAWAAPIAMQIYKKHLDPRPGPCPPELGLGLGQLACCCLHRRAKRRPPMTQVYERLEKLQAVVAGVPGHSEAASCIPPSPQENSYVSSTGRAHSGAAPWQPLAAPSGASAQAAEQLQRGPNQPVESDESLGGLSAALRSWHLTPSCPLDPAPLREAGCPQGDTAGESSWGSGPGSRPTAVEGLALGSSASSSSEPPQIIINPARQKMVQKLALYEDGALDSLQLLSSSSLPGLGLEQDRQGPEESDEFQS
Description: as §1

[22] = target: SMG1 (Homo sapiens (Human), UniProt Q96Q15); settings: H929 live cell
Description: as §1

[23] = target: MSK1 domain1 (Homo sapiens (Human), UniProt O75582); settings: H929 live cell
Sequence of MSK1 domain1 (O75582 whole entry, the tested form may be a part): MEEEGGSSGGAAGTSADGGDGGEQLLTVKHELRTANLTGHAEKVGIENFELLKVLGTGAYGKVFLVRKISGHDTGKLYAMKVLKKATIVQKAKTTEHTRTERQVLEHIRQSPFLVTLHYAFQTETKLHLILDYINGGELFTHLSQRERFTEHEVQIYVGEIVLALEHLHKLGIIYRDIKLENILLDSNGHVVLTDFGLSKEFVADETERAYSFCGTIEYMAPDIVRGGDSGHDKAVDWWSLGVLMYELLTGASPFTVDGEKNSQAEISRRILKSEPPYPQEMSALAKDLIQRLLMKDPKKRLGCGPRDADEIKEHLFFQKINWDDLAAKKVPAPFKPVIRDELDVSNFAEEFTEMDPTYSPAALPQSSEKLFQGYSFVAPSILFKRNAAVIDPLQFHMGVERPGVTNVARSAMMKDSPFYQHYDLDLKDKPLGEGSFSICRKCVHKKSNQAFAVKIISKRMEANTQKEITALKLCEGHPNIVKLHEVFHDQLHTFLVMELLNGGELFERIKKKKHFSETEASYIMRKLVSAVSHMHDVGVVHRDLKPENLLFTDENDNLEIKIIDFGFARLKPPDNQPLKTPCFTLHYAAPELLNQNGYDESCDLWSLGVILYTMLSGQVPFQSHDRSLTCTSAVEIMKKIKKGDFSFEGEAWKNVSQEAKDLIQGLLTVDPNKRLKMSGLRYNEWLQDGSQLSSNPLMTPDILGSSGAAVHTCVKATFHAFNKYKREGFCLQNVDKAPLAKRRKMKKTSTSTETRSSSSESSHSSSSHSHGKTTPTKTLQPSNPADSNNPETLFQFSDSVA
Description: as §1

[24] = target: PIK3CB (Homo sapiens (Human), UniProt P42338); settings: H929 live cell
Description: as §1

[25] = test system: MARK2, MARK3; settings: H929 live cell
Description: as §1

[26] = test system: PI4KA, PI4KAP2; settings: H929 live cell
Description: as §1

[27] = target: OSR1 (Homo sapiens (Human), UniProt O95747); settings: H929 live cell
Description: as §1

[28] = test system: AMPKa1, AMPKa2; settings: H929 live cell
Description: as §1

[29] = target: IRAK4 (Homo sapiens (Human), UniProt Q9NWZ3); settings: H929 live cell
Description: as §1

[30] = target: TLK1 (Homo sapiens (Human), UniProt Q9UKI8); settings: H929 live cell
Description: as §1

[31] = target: MST3 (Homo sapiens (Human), UniProt Q9Y6E0); settings: H929 live cell
Description: as §1

[32] = target: CDK5 (Homo sapiens (Human), UniProt Q00535); settings: H929 live cell
Description: as §1

[33] = target: CaMKK2 (Homo sapiens (Human), UniProt Q96RR4); settings: H929 live cell
Sequence of CaMKK2 (Q96RR4 whole entry): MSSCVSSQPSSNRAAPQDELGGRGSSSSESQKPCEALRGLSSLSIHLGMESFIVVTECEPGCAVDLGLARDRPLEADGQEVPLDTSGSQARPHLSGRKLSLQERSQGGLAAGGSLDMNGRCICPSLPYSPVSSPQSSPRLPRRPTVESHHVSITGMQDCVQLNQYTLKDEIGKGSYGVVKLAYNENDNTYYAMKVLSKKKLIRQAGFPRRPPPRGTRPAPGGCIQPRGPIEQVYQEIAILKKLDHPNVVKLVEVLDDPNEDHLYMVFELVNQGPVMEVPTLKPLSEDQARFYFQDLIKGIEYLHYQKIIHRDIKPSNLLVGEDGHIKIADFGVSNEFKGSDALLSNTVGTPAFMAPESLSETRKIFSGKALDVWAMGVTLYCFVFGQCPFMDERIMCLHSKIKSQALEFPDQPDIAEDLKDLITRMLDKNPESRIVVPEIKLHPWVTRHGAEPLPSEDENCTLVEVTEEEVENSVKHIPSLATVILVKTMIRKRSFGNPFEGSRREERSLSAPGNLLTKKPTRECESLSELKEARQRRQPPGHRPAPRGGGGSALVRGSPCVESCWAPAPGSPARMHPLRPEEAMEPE
Description: as §1

[34] = target: KHS1 (Homo sapiens (Human), UniProt Q9Y4K4); settings: H929 live cell
Description: as §1

Question: Which inhibition at 10 µM ([1]; read-out: % inhibition (range)) does the source give for `Nc1ncc(-c2cccc3ncsc23)cc1-c1ccc2c(c1)CCNC2=O` [Compound I-13, 6-(2-amino-5-(benzo[d]thiazol-7-yl)pyridin-3-yl)-3,4-dihydroisoquinolin-1(2H)-one] here?
Answer: 0%

Question: What about the inhibition at 10 µM ([1]; read-out: inhibition (10 μM)) of the same compound?
Answer: 15.2%

Question: And the inhibition at 10 µM ([2]; read-out: % inhibition (range))?
Answer: 0%

Question: And the inhibition at 10 µM ([2]; read-out: inhibition (10 μM))?
Answer: 3.3%

Question: What about the inhibition at 10 µM ([3]; read-out: % inhibition (range)) of the same compound?
Answer: 0%

Question: And the inhibition at 10 µM ([3]; read-out: inhibition (10 μM))?
Answer: -27.5%

Question: What about the “% inhibition (range)” value ([4]; 10 μM) of the same compound?
Answer: 0.0%

Question: And the “inhibition (10 μM)” value [4]?
Answer: 0.3%

Question: What about the inhibition at 10 µM ([5]; read-out: % inhibition (range)) of the same compound?
Answer: 0%

Question: What about the inhibition at 10 µM ([5]; read-out: inhibition (10 μM)) of the same compound?
Answer: 6.2%

Question: And the inhibition at 10 µM ([6]; read-out: % inhibition (range))?
Answer: 0%

Question: And the inhibition at 10 µM ([6]; read-out: inhibition (10 μM))?
Answer: -17.4%

Question: What about the “% inhibition (range)” value ([7]; 10 μM) of the same compound?
Answer: 0.0%

Question: What about the “inhibition (10 μM)” value [7] of the same compound?
Answer: −43.7%

Question: What about the inhibition at 10 µM ([8]; read-out: % inhibition (range)) of the same compound?
Answer: 50 to 75%

Question: And the inhibition at 10 µM ([8]; read-out: inhibition (10 μM))?
Answer: 52.1%

Question: And the inhibition at 10 µM ([9]; read-out: % inhibition (range))?
Answer: 0%

Question: What about the inhibition at 10 µM ([9]; read-out: inhibition (10 μM)) of the same compound?
Answer: 26.4%

Question: What about the inhibition at 10 µM ([10]; read-out: % inhibition (range)) of the same compound?
Answer: > 90%

Question: And the inhibition at 10 µM ([10]; read-out: inhibition (10 μM))?
Answer: 91.6%

Question: And the inhibition at 10 µM ([11]; read-out: % inhibition (range))?
Answer: 0%

Question: And the inhibition at 10 µM ([11]; read-out: inhibition (10 μM))?
Answer: 13.4%

Question: And the inhibition at 10 µM ([12]; read-out: % inhibition (range))?
Answer: 0%

Question: And the inhibition at 10 µM ([12]; read-out: inhibition (10 μM))?
Answer: -20.2%

Question: And the “% inhibition (range)” value ([13]; 10 μM)?
Answer: 0.0%

Question: What about the “inhibition (10 μM)” value [13] of the same compound?
Answer: 13.1%

Question: What about the inhibition at 10 µM ([14]; read-out: % inhibition (range)) of the same compound?
Answer: 0%

Question: And the inhibition at 10 µM ([14]; read-out: inhibition (10 μM))?
Answer: 24.8%

Question: And the “% inhibition (range)” value [15]?
Answer: 0.0%

Question: And the inhibition at 10 µM ([16]; read-out: % inhibition (range))?
Answer: 0%

Question: What about the inhibition at 10 µM ([16]; read-out: inhibition (10 μM)) of the same compound?
Answer: 34.8%

Question: What about the inhibition at 10 µM ([17]; read-out: % inhibition (range)) of the same compound?
Answer: 0%

Question: And the inhibition at 10 µM ([17]; read-out: inhibition (10 μM))?
Answer: -12.8%

Question: And the inhibition at 10 µM ([18]; read-out: % inhibition (range))?
Answer: 0%

Question: What about the inhibition at 10 µM ([18]; read-out: inhibition (10 μM)) of the same compound?
Answer: -21.7%

Question: And the inhibition at 10 µM ([19]; read-out: % inhibition (range))?
Answer: 0%

Question: And the inhibition at 10 µM ([19]; read-out: inhibition (10 μM))?
Answer: 14.7%

Question: What about the inhibition at 10 µM ([20]; read-out: % inhibition (range)) of the same compound?
Answer: 50 to 75%

Question: What about the inhibition at 10 µM ([20]; read-out: inhibition (10 μM)) of the same compound?
Answer: 74.6%

Question: And the inhibition at 10 µM ([21]; read-out: % inhibition (range))?
Answer: 0%

Question: What about the inhibition at 10 µM ([21]; read-out: inhibition (10 μM)) of the same compound?
Answer: 28.5%

Question: And the inhibition at 10 µM ([22]; read-out: % inhibition (range))?
Answer: 50 to 75%

Question: And the inhibition at 10 µM ([22]; read-out: inhibition (10 μM))?
Answer: 61%

Question: What about the inhibition at 10 µM ([23]; read-out: % inhibition (range)) of the same compound?
Answer: 0%

Question: And the inhibition at 10 µM ([23]; read-out: inhibition (10 μM))?
Answer: 9.5%

Question: And the inhibition at 10 µM ([24]; read-out: % inhibition (range))?
Answer: 0%

Question: And the inhibition at 10 µM ([24]; read-out: inhibition (10 μM))?
Answer: 23.1%

Question: What about the “% inhibition (range)” value ([25]; 10 μM) of the same compound?
Answer: 0.0%

Question: What about the “inhibition (10 μM)” value [25] of the same compound?
Answer: 14.8%

Question: And the “% inhibition (range)” value ([26]; 10 μM)?
Answer: 0.0%

Question: And the “inhibition (10 μM)” value [26]?
Answer: −16.1%

Question: What about the inhibition at 10 µM ([27]; read-out: % inhibition (range)) of the same compound?
Answer: 0%

Question: And the inhibition at 10 µM ([27]; read-out: inhibition (10 μM))?
Answer: 1.4%

Question: And the “% inhibition (range)” value ([28]; 10 μM)?
Answer: 0.0%

Question: What about the “inhibition (10 μM)” value [28] of the same compound?
Answer: 1.8%

Question: What about the inhibition at 10 µM ([29]; read-out: % inhibition (range)) of the same compound?
Answer: 0%

Question: What about the inhibition at 10 µM ([29]; read-out: inhibition (10 μM)) of the same compound?
Answer: -6.4%

Question: And the inhibition at 10 µM ([30]; read-out: % inhibition (range))?
Answer: 0%

Question: And the inhibition at 10 µM ([30]; read-out: inhibition (10 μM))?
Answer: 8.6%

Question: And the inhibition at 10 µM ([31]; read-out: % inhibition (range))?
Answer: 0%

Question: What about the inhibition at 10 µM ([31]; read-out: inhibition (10 μM)) of the same compound?
Answer: -1.8%

Question: And the inhibition at 10 µM ([32]; read-out: % inhibition (range))?
Answer: 0%

Question: And the inhibition at 10 µM ([32]; read-out: inhibition (10 μM))?
Answer: 20%

Question: What about the inhibition at 10 µM ([33]; read-out: % inhibition (range)) of the same compound?
Answer: 50 to 75%

Question: And the inhibition at 10 µM ([33]; read-out: inhibition (10 μM))?
Answer: 74.9%

Question: What about the inhibition at 10 µM ([34]; read-out: % inhibition (range)) of the same compound?
Answer: 35 to 50%

Question: And the inhibition at 10 µM ([34]; read-out: inhibition (10 μM))?
Answer: 47.7%
